According to patent publication US10316050B2, “PT (IV) complexes containing 4,4′-disubstituted-2,2′-bipyridyl and their use in cancer therapy” (THE BOARD OF REGENTS OF THE NEVADA SYSTEM OF HIGHER …, priority 2014, dated 2019):
Read-outs that look alike come from different tables or passages of the source.

Key:
Assay type in all cases: cell-based, human
[1] = tested on: HCC38 breast cancer cells; test: MTS cell viability assay, HCC38; settings: read-out: EC50 (effective concentration that resulted in 50% cell viability)
Protocol: (§1) Human breast (HCC38, MCF-7, MDA-MB-231, SK-BR-3, T-47D, and ZR-75-1), lung (A549 and H520), and prostate (DU145 and PC-3) cancer cell lines were obtained from American Culture Type Collection (ATCC). The HCC38, MCF-7, MDA-MB-231, SK-BR-3, T-47D, ZR-75-1, and A549 cells were grown in MEM supplemented with 10% FBS, 25 mM HEPES buffer (pH 7.4), penicillin (100 U/mL), and streptomycin (100 μg/mL). The H520, DU145, and PC-3 cell lines were grown in RPMI-1640 supplemented with 10% FBS, 25 mM HEPES buffer (pH 7.4), penicillin (100 U/mL), and streptomycin (100 μg/mL). All cell lines were maintained at 37° C. in a humidified, 5% CO2 atmosphere.
(§2) Cells were cultured at a density of 2-3.5×10^3 cells per well in flat bottomed 96-well plates in 100 μL of complete growth medium and incubated for 2 days to reach ˜50% confluence. The cells were then treated with solvent or the appropriate drugs (CDDP stock was dissolved in 0.15 M NaCl, carboplatin stock was dissolved in 5% glucose, synthesized Pt(IV) complexes were dissolved in DMSO) for 1 hour, washed three times with 100 μL PBS, and incubated in 100 μL of fresh medium. After 2 days, the medium was replaced with 120 μL of medium containing CellTiter 96® Aqueous One Solution Reagent (MTS reagent) (Promega, Madison, Wis.). The cells were incubated at 37° C. for 4 hours and the cell viability was determined by measuring the absorbance at 490 nm using a Tecan Infinite M1000 microplate reader. The 48 h treatment was done in a similar manner, except the cells were not washed after treatment and the MTS reagent was immediately added. Viability of treated groups was calculated as a percent of control and graphed with GraphPad Prism.
(§3) The anti-proliferative activities of Pt(IV) complexes were determined in two lung (A549 and H520), two prostate (DU145 and PC-3), and six breast (HCC38, MCF-7, MDA-MB-231, SK-BR-3, T-47D, and ZR-75-1) cancer cell lines. The cells were treated with increasing concentrations of cisplatin (CDDP), carboplatin, or the Pt(IV) complexes for 1 or 48 hours, and the viability was measured using an MTS colorimetric cell proliferation assay. Graphs of the results are shown for DU145 (FIG. 8A), PC-3 (FIG. 8B), SK-BR-3 (FIG. 8C), ZR-75-1 (FIG. 8D), A549 (FIG. 8E), and MCF-7 (FIG. 8F).

[2] = tested on: ZR-75-1 breast cancer cells; test: MTS cell viability assay, ZR-75-1; settings: read-out: EC50 (effective concentration that resulted in 50% cell viability)
Protocol: as §1, §2, §3

[3] = tested on: SK-BR-3 breast cancer cells; test: MTS cell viability assay, SK-BR-3; settings: read-out: EC50 (effective concentration that resulted in 50% cell viability)
Protocol: as §1, §2, §3
(§4) The anti-proliferative activities of certain Pt(II) complexes were determined in DU145, PC-3, and SK-BR-3 cells. The cells were treated with increasing concentrations of cisplatin (CDDP) or the Pt(II) complexes for 1 or 48 hours, and the viability was measured using an MTS colorimetric cell proliferation assay.

A549 lung cancer cells = test: MTS cell viability assay, A549; settings: read-out: EC50 (effective concentration that resulted in 50% cell viability)
Protocol: as §1, §2, §3

[4] = tested on: DU145 prostate cancer cells; settings: read-out: EC50 (effective concentration that resulted in 50% cell viability)
Protocol: as §1, §2, §3, §4

[5] = tested on: T-47D breast cancer cells; test: MTS cell viability assay, T-47D
Protocol: as §1, §2, §3

[6] = tested on: PC-3 prostate cancer cells; test: MTS cell viability assay, PC-3; settings: read-out: EC50 (effective concentration that resulted in 50% cell viability)
Protocol: as §1, §2, §3, §4

[7] = tested on: MDA-MB-231 breast cancer cells; test: MTS cell viability assay, MDA-MB-231; settings: read-out: EC50 (effective concentration that resulted in 50% cell viability)
Protocol: as §1, §2, §3

[8] = tested on: MCF-7 breast cancer cells; test: MTS cell viability assay, MCF-7; settings: read-out: EC50 (effective concentration that resulted in 50% cell viability)
Protocol: as §1, §2, §3

H520 lung cancer cells = test: MTS cell viability assay, H520; settings: read-out: EC50 (effective concentration that resulted in 50% cell viability)
Protocol: as §1, §2, §3

[9] = ZR-75-1, 1 h treatment, Table 2
[10] = ZR-75-1, 48 h treatment, Table 4
[11] = SK-BR-3, 1 h treatment, Table 2
[12] = SK-BR-3, 48 h treatment, Table 4
[13] = 1 h treatment, Table 2, read-out: EC50 (effective concentration that resulted in 50% cell viability)
[14] = 48 h treatment, Table 4, read-out: EC50 (effective concentration that resulted in 50% cell viability)
[15] = MDA-MB-231, 1 h treatment, Table 2
[16] = MDA-MB-231, 48 h treatment, Table 4

Compound	EC50 ([1]; HCC38, 1 h treatment, Table 2) [µM]	EC50 ([1]; HCC38, 48 h treatment, Table 4) [µM]	EC50 [2, 9] [µM]	EC50 [2, 10] [µM]	EC50 [3, 11] [µM]	EC50 [3, 12] [µM]	EC50 (A549 lung cancer cells; A549, 1 h treatment, Table 2) [µM]	EC50 (A549 lung cancer cells; A549, 48 h treatment, Table 4) [µM]	EC50 ([4]; DU145, 1 h treatment, Table 2) [µM]	EC50 ([4]; DU145, 48 h treatment, Table 4) [µM]	EC50 [5, 13] [µM]	EC50 [5, 14] [µM]	EC50 ([6]; PC-3, 1 h treatment, Table 2) [µM]	EC50 ([6]; PC-3, 48 h treatment, Table 4) [µM]	EC50 [7, 15] [µM]	EC50 [7, 16] [µM]	EC50 ([8]; MCF-7, 1 h treatment, Table 2) [µM]	EC50 ([8]; MCF-7, 48 h treatment, Table 4) [µM]	EC50 (H520 lung cancer cells; H520, 1 h treatment, Table 2) [µM]	EC50 (H520 lung cancer cells; H520, 48 h treatment, Table 4) [µM]	also measured
[Pt(IV)Cl2(OAc)2(4,4′-dihexyloxy-2,2′-bipyridine)] [Pt(IV)-6C]																					EC50 ([1]; HCC38, 1 h treatment, Table 3): 2.3 ± 0.2 µM; EC50 ([1]; HCC38, 48 h, Table 5): 1.8 ± 0.5 µM; EC50 ([2]; ZR-75-1, 1 h treatment, Table 3): 1.1 ± 0.4 µM; EC50 ([2]; ZR-75-1, 48 h, Table 5): 0.55 ± 0.04 µM; EC50 ([3]; SK-BR-3, 1 h treatment, Table 3): 0.36 ± 0.02 µM; EC50 ([3]; SK-BR-3, 48 h, Table 5): 0.21 ± 0.03 µM; EC50 (A549 lung cancer cells; A549, 1 h treatment, Table 3): 2.5 ± 0.2 µM; EC50 (A549 lung cancer cells; A549, 48 h, Table 5): 2.2 ± 0.1 µM; EC50 ([4]; DU145, 1 h treatment, Table 3): 1.3 ± 0.2 µM; EC50 ([4]; DU145, 48 h, Table 5): 0.5 ± 0.3 µM; EC50 ([5]; 1 h treatment, Table 3, read-out: EC50 (effective concentration that resulted in 50% cell viability)): 2.1 ± 0.4 µM; EC50 ([5]; 48 h, Table 5, read-out: EC50 (effective concentration that resulted in 50% cell viability)): 0.24 ± 0.01 µM; EC50 ([6]; PC-3, 1 h treatment, Table 3): 2 ± 0.3 µM; EC50 ([6]; PC-3, 48 h, Table 5): 0.33 ± 0.04 µM; EC50 ([7]; MDA-MB-231, 1 h treatment, Table 3): 1.1 ± 0.2 µM; EC50 ([7]; MDA-MB-231, 48 h, Table 5): 0.31 ± 0.04 µM; EC50 ([8]; MCF-7, 1 h treatment, Table 3): 2.4 ± 0.1 µM; EC50 ([8]; MCF-7, 48 h, Table 5): 1.6 ± 0.2 µM; EC50 (H520 lung cancer cells; H520, 1 h treatment, Table 3): 2.1 ± 0.2 µM; EC50 (H520 lung cancer cells; H520, 48 h, Table 5): 1 ± 0.4 µM
CCOc1ccnc(-c2cc(OCC)ccn2)c1.[Cl][Pt][Cl] [Pt(II)-2C]	18 ± 4	20 ± 3	58 ± 15	16.5	2.2 ± 0.2	1.8	> 100	66 ± 7	20 ± 5	11 ± 4	5 ± 2	2.2 ± 0.4	22 ± 5	21 ± 7	30 ± 20	20 ± 6	> 100	> 100	> 100	21 ± 1	
CCCOc1ccnc(-c2cc(OCCC)ccn2)c1.[Cl][Pt][Cl] [Pt(II)-3C]	3 ± 2	4.7 ± 0.5	8.9 ± 0.4	5 ± 1	1.81 ± 0.03	1.73 ± 0.01	48 ± 3	17 ± 1	6 ± 1	4 ± 2	2.4 ± 0.1	1.9 ± 0.1	5 ± 1	5.1 ± 0.8	4 ± 2	2.2 ± 0.1	100	19 ± 4	40 ± 20	13 ± 5	
